According to patent publication US5608143A, “External regulation of gene expression” (E. I. Du Pont de Nemours and Company, priority 1994, dated 1997):

What was measured:
2-2 gene (In 2-2 mRNA) = assay: RNA slot blot / Northern analysis of 2-2 mRNA in roots of chemically treated corn; format: in vivo, corn (Missouri 17); set-up: In2-2 induction level: key to the marks not given beside the values
Protocol: Details of the techniques used to perform the procedures used in Example 2 are presented in Example 1. The cDNA library made using poly(A)^+ RNA from the roots of N-(aminocarbonyl)-2-chlorobenzenesulfonamide-treated Missouri 17 corn plants (described in Example 1) was analyzed for additional cDNA clones representing mRNAs induced by substituted benzenesulfonamides. […] This colony was designated In 2-2.
A small scale plasmid preparation was performed on the plasmid contained in colony In 2-2. This plasmid was designated pIn 2-2. An aliquot of pIn 2-2 was nick translated as described earlier. A slot blot containing total RNA from N-(aminocarbonyl)-2-chlorobenzenesulfonamide-treated and untreated roots was prepared and probed with nick-translated pIn 2-2 as described for pIn 2-1 in Example 1.
The pIn 2-2 small scale plasmid preparation was digested to completion with Pst I and analyzed by agarose gel electrophoresis. The cDNA insert of the plasmid was excised by Pst I as a single 1200 bp fragment. Nick-translatedpIn 2-2 was used to probe a Northern blot of RNA from both untreated and N-(aminocarbonyl)-2-chlorobenzenesulfonamide-treated roots.
(§1) The ability at various substituted benzenesulfonamides and related compound to induce the expression of the 2-1, 2-2, and 5-2 genes of Missouri 17 corn was evaluated. Corn seeds were germinated and grown hydroponically in 2 liter beakers as described in Example 1. On the tenth day, plants were transferred into fresh 0.5× Hoagland's solution containing the chemical to be tested. Root tissue was harvested from the plants after six hours of chemical treatment, quick-frozen by immersion in liquid N2, and stored at -80° C. until analyzed.
(§2) Details of the RNA isolation and slot blot analysis procedures are presented in Example 1. Total RNA was prepared from the root tissue of plants that had been treated with various chemicals using the previously described guanidine thiocyanate procedure. Replicate blots, each consisting of 2 μg of total RNA from tissues treated with each of the chemicals shown in tables 8 and 9, were prepared on nitrocellulose membranes using a Minifold II® Slot-blotter (Schleicher & Schuell) following the manufacturer's recommeneded procedure. Replicate blots were prehybridized and hybridized with cDNA probes made by nick translation of the purified cDNA inserts from plasmid pIn 2-1, pIn 2-2-3, and pIn 5-2. Slot blots were washed as described in Example 1 and exposed to Kodak X-OMAT XAR-5 film for 24 hours at -80° C. using a single Du Pont Lightning Plus intensifying screen. Film was developed using a Kodak X-OMAT film processor. The abililty of a chemical to induce the mRNA encoded by the three inducible genes was evaluated in one of two ways. Qualitative evaluation was performed by direct visual comparison of the autoradiographic signal intensities on the films for the hybridization of each probe to the different RNA samples. Quantitative evaluation was performed by cutting each slot containing hybridized RNA from the blot, immersing it in 2 ml of Du Pont ECONOFLUOR® scintillation cocktail and counting the radioactivity in each slot in a scintillation counter. The net amount of radioactivity hybridizing to N-(aminocarbonyl)-2-chlorobenzenesulfonamide-treated RNA after subtraction of radioactivity hybridizing to untreated RNA is presented in Table 15.

5-2 gene (In 5-2 mRNA) = assay: RNA slot blot / Northern analysis of 5-2 mRNA in roots of chemically treated corn; format: in vivo, corn (Missouri 17); set-up: In5-2 induction level: key to the marks not given beside the values
Protocol: Details of the techniques used to perform Example 3 are presented in Example 1. The cDNA library made from poly (A)+ RNA from the roots of N-(aminocarbonyl)-2-chlorobenzenesulfonamide-treated Missouri 17 corn plants described in Example 1 was analyzed for additional cDNA clones representing N-(aminocarbonyl)-2-chlorobenzenesulfonamide-induced mRNAs. […] This colony was designated In 5-2.
A small scale plasmid preparation was performed on an overnight culture of In 5-2 and an aliquot of the plasmid, designated pIn 5-2, was nick-translated as described earlier. Slot blot analysis was performed as described in Example 1 using nick-translated In 5-2 plasmid. […] This plasmid was designated pIn 5-2.
An aliquot of the small scale plasmid preparation of pIn 5-2 was digested to completion with PSt I and analyzed by agarose gel electrophoresis. The cDNA insert of the plasmid was excised as a single 420 bp Pst I fragment. Plasmid pin 5-2 was nick-translated and used to probe a Northern blot of RNA from both untreated and N-(aminocarbonyl)-2-chlorobenzenesulfonamide-treated roots.
as §1, §2

[1] = hydroponic application, 100 ppm
[2] = hydroponic treatment, corn roots

With NC(=O)NS(=O)(=O)c1ccccc1Cl the In2-2 induction level (2-2 gene (In 2-2 mRNA); [1]) was “+++++”, the “hybridization of pIn 2-2 to root RNA (Northern blot)” value (2-2 gene (In 2-2 mRNA); [2]) was “present only in RNA from the roots” and the “hybridization of pIn 2-2 to root RNA (slot blot)” value (2-2 gene (In 2-2 mRNA); [2]) was “hybridizes strongly”. For the same molecule, the In5-2 induction level (5-2 gene (In 5-2 mRNA); [1]) was “+++++”, the “hybridization of pIn 5-2 to root RNA (Northern blot)” value (5-2 gene (In 5-2 mRNA); [2]) was “induced in root tissue by chemical treatment” and the “hybridization of pIn 5-2 to root RNA (slot blot)” value (5-2 gene (In 5-2 mRNA); [2]) was “hybridizes strongly”.
